Results published in ChEMBL document CHEMBL3137356, “MMV Box Cryptosporidium parvum screening set”.

system: Cryptosporidium parvum; assay: MMV: Cryptosporidium parvum oocysts (Iowa Strain) were prepared for use by treatment with 10 mM HCl (37 degrees C, 10 min) followed by 2 mM sodium taurocholate in phosphate-buffered saline (PBS) with Ca2+ and Mg2+ (16 degrees C, 10 min) in order to stimulate excystation. The high-throughput screen was carried out by inoculating >90% confluent human ileocecal adenocarcinoma (HCT-8) cells (ATCC) with ~5.5 x 10^3 primed oocysts per well. Experimental compounds or DMSO (vehicle) were added three hours after infection, and cells were incubated for 48 hours.; type: functional

| SMILES | Inhibition [%] |
| --- | --- |
| COc1ccc2c(c1)C1(Nc3ccccc3-c3nc4ccccc4n31)C(=O)N2 (stereo unspecified) | -27.19 |
| COc1cccc(Cn2c(Oc3ccccc3)nc3c2c(=O)n(C)c(=O)n3C)c1 | -39.36 |
| CCOc1c(Cl)cc(CNCC(O)c2ccccc2)cc1OC (stereo unspecified) | -11.22 |
| OC(CNCC1CCCO1)Cn1c2ccc(Cl)cc2c2cc(Cl)ccc21 (stereo unspecified) | -33.95 |
| COc1ccc2nc(C)cc(Nc3ccccc3O)c2c1 | -4.901 |
| CCn1nc(-c2ccc(C(=O)OC)cc2)nc2c(=O)n(C)c(=O)nc1-2 | -16.23 |
| CCOc1ccccc1CN1CCc2nc3cc(C(C)(C)C)nn3c(O)c2C1 | -3.69 |
| Cc1cc(N2CCCC2)nc(Nc2ccc(NC(=O)CCc3ccccc3)cc2)n1 | 13.46 |
| CN1CCN(c2ncnc3c2[nH]c2ccc(Cl)cc23)CC1 | -51.61 |
| CC1(c2ccccc2)Nc2ccccc2-c2nc3ccccc3n21 (stereo unspecified) | 30.85 |
| COc1cccc(C2(C)Nc3ccccc3-c3nc4ccccc4n32)c1 (stereo unspecified) | -28.25 |
| CC(C)CNC(=O)c1c(N)n(CCc2ccccc2F)c2nc3ccccc3nc12 | -31.92 |
| CC(C)(C)CC(C)(C)NCC(O)COc1ccc(Cl)cc1Cl (stereo unspecified) | 15.77 |
| O=C1c2ccccc2-c2nnc(-c3ccc(Br)cc3)cc21 | -13.35 |
| O=C(Nc1ccc(Br)cc1)Nc1cccc(Cl)c1 | -51.26 |
| CN(C)CCNc1cc(-c2ccccc2)nc2ccccc12 | -2.54 |
| CCOC(=O)C1=C(C)N=c2sc(=Cc3ccccc3O)c(=O)n2C1c1ccc(OC)c2ccccc12 (stereo unspecified) | -32.82 |
| CCOC(=O)C1=C(C)N=c2sc(=Cc3cc(Cl)ccc3O)c(=O)n2C1c1ccc(OC)cc1 (stereo unspecified) | -31.98 |
| Cc1nc2ccccc2c(O)c1CC=C(Cl)Cl | -7.486 |
| FC(F)(F)c1cccc(Nc2nc3ccccc3nc2Nc2cccc(C(F)(F)F)c2)c1 | -14.38 |
| COc1ccc2nc(C)cc(Nc3ccc(Cl)cc3)c2c1 | -41.72 |
| CCC(O)c1ccc(Br)cc1NC(=O)c1cccc(Cl)c1 (stereo unspecified) | 15.79 |

| SMILES | Inhibition [%] |
| --- | --- |
| COc1ccc2nc(C)cc(Nc3cccc(O)c3)c2c1.Cl | -14.76 |
| CN(C)CCCNCc1ccc(-c2ccc(F)c(Cl)c2)o1.Cl | -9.329 |
| O=c1nc(C=Cc2ccc(Br)cc2)oc2ccccc12 | 36.68 |
| COc1ccc2nc(N)nc(C)c2c1 | 15.73 |
| CC(=O)c1ccc(NC(=O)CSc2nc(-c3ccccc3Cl)ns2)cc1 | 23.33 |
| Cc1sc2ncnc(Sc3nc4ccccc4[nH]3)c2c1C | 20.44 |
| COc1ccc(C(=O)NC(c2ccc(Cl)cc2Cl)c2cc(Cl)c3cccnc3c2O)cc1 (stereo unspecified) | 66.57 |
| CCC(=O)Nc1nnc(Cc2ccc(OC)c(OC)c2)s1 | 5.406 |
| O=C(NCCCN1CCC(N2CCCCC2)CC1)C1=Cc2cc(Br)ccc2OC1 | -11.72 |
| Cc1ccnc(NC(c2cccc(OCc3ccccc3)c2)c2ccc3cccnc3c2O)c1 (stereo unspecified) | 80.24 |
| CC(=O)Nc1nnc(SCc2c(C)cc(C(C)(C)C)cc2C)s1 | -2.709 |
| O=C(Nc1ccc(CN2CCOCC2)cc1)c1ccc(-c2cc(Cl)ccc2Cl)o1 | 9.568 |
| Cc1cc(Nc2cccc(F)c2)nc(NCc2ccccc2)n1 | -34.09 |
| O=c1cc(NC2CCN(CCCc3ccccc3)CC2)c2cc(Cl)ccc2o1 | -2.261 |
| Cc1ccc(OCCCCCCNCCO)c(C)c1 | -13.88 |
| COc1cccc(C(=O)Nc2ccc(-c3nc4ccccc4[nH]3)cc2)c1 | -26.13 |
| COCCn1c(C)nc2ccccc2c1=O | -17.93 |
| O=C(Nc1cccc(-c2nc3ccccc3[nH]2)c1)c1cccc(NC(=O)c2ccco2)c1 | 23.53 |
| O=C(NC1CCN(Cc2ccccc2)CC1)c1cc(-c2cccnc2)nc2ccc(Cl)cc12 | -40.68 |
| CCN(Cc1ccccc1)C1CCN(Cc2cc(Br)ccc2O)CC1.O=C(O)C(=O)O | -6.655 |
| CC1CCN(Cc2c(O)ccc3cc(-c4nc5ccccc5s4)c(=O)oc23)CC1 | -9.182 |
| Cc1ccc2cc3c(N)c4c(C)ccc(C)c4nc3nc2c1 | -22.09 |

| SMILES | Inhibition [%] |
| --- | --- |
| CC(C)CCNCC(O)Cn1c2ccccc2c2ccccc21.Cl (stereo unspecified) | 46.75 |
| CCOC(=O)c1cnc2ccc(Cl)cc2c1NCCCN(C)C | 28.81 |
| CCOc1ccccc1NC(=O)CN1CCN(C(=O)c2ccco2)CC1 | -43.69 |
| O=C(Nc1ccc(C23CC4CC(CC(c5ccccc5)(C4)C2)C3)cc1)c1cccs1 | -2.299 |
| O=C1c2ccccc2C2=Nc3ccccc3SC(c3cccc(F)c3)C12 (stereo unspecified) | -5.793 |
| Cc1ccccc1OCCSc1nc2ccc(NC(=O)c3ccccc3)cc2s1 | 17.58 |
| CCOC(=O)c1cnc2c(C)cccc2c1Nc1ccc(C(C)=O)cc1 | -10.99 |
| COc1ccc(-c2nonc2NC(=O)c2cccc(Cl)c2)cc1OC | 23.52 |
| Cc1cc(NC(=O)c2ccc(-c3ccccc3)cc2)no1 | 13.55 |
| CCOc1cc2c(cc1OCC)C(c1cc(C)c(O)c(C)c1)NCC2.Cl (stereo unspecified) | 13.77 |
| O=C1CC(O)(C(F)(F)C(F)(F)F)Oc2ccccc21 (stereo unspecified) | 26.51 |
| COc1cc(SC)ccc1C(=O)N1CCCC(C)C1 (stereo unspecified) | -12.18 |
| Cc1ccc(C2CC(C(F)(F)F)n3nc(C(=O)N4CCN(C(c5ccccc5)c5ccccc5)CC4)cc3N2)cc1 (stereo unspecified) | -21.96 |
| Cc1ccc2nc(C)cc(Nc3cccc(C(F)(F)F)c3)c2c1.Cl | 53.25 |
| CC(C)c1ccc(CNCC(O)c2ccccc2)cc1.Cl (stereo unspecified) | 13.18 |
| CC(C)(C)c1ccc(C(=O)Nc2c3c(nn2-c2cccc(Cl)c2)CSC3)cc1 | 7.325 |
| CCOc1cc2c(cc1OCC)C(c1cc(Cl)c(O)c(OCC)c1)NCC2 (stereo unspecified) | -10.58 |
| COc1ccc(N2CCN(C(CNC(=O)CC(C)(C)C)c3ccc4c(c3)OCO4)CC2)cc1 (stereo unspecified) | -20.28 |
| COc1cccc(C(=O)NC(c2ccc(C)cc2)c2cc(Cl)c3cccnc3c2O)c1 (stereo unspecified) | 59.18 |
| CCCCCCn1c(=N)n(CC(O)COc2cccc(C)c2)c2ccccc21.Cl (stereo unspecified) | 6.838 |
| Cc1ccc(NC(=O)Nc2cccc(Cl)c2)cc1F | -0.4391 |
| O=C(O)C(=O)O.Oc1ccc(Br)cc1CN1CCN(Cc2cccc(F)c2)CC1 | -34.58 |

| SMILES | Inhibition [%] |
| --- | --- |
| COc1ccc(-c2cc(=O)oc3c4c(ccc23)OCN(Cc2ccc(F)cc2)C4)cc1 | -0.4054 |
| CCOC(=O)C1(Cc2ccccc2)CCN(Cc2cccc(OC)c2O)CC1 | -29.57 |
| Oc1ccc(C(=C(Cl)Cl)c2ccc(O)cc2)cc1 | -24.26 |
| CCOc1ccc2c(c1)CN(Cc1ccc(Cl)cc1)CO2 | -64.93 |
| CC(C)(C)c1ccc2c(c1)CN(Cc1ccc(Cl)cc1)CO2 | -0.2226 |
| CCCCC(O)(c1ccc(Cl)cc1)C(CN1CCOCC1)c1ccc(Cl)cc1.Cl (stereo unspecified) | 17.88 |
| O=c1nc(C=Cc2ccc(Cl)cc2)oc2ccccc12 | 84.37 |
| O=C(NCc1ccco1)C1CCN(S(=O)(=O)c2ccc(Br)cc2)CC1 | 29.65 |
| CN(C)c1ccc(N2C(N)=NC(N)=NC2(C)C)cc1 | -33.57 |
| COc1ccc(Nc2nc(NCc3ccccc3)c3ccccc3n2)cc1 | 49.98 |
| COc1ccc(OC)c(C2C3=C(CC(C)(C)CC3=O)N(c3ccc(Cl)c(Cl)c3)C3=C2C(=O)CC(C)(C)C3)c1 | 2.896 |
| Cc1cc(=O)oc2c1ccc1oc(C(=O)c3ccccc3)c(C)c12 | 64.86 |
| COc1ccc(CN2CCN(Cc3ccccc3)CC2)c(O)c1 | -9.592 |
| COc1cc2c(cc1OC)C1=NNC(=O)C1=NC(C)(C)C2 | -25.43 |
| COc1ccc2c(c1OC)C(=O)N1c3ccccc3N=C(c3ccc(C)cc3)CC21 (stereo unspecified) | -57.7 |
| Oc1c(CN2CCN(c3ccccc3F)CC2)cc(Br)c2cccnc12 | 61.72 |
| CCCCCCc1cc(O)c2c3c(c(=O)oc2c1)CCC(C)C3 (stereo unspecified) | -17.49 |
| Cl.OC(CNCc1ccccc1)Cn1c2ccccc2c2ccccc21 (stereo unspecified) | -37.25 |
| COc1ccc(CCNC(=O)c2cc(S(=O)(=O)N3CC(C)CC(C)C3)ccc2Sc2ccc(F)cc2)cc1OC (stereo unspecified) | 16.29 |
| Oc1c2c(nc3cc(-c4ccccc4)nn13)CCCC2 | 37.02 |
| CCOc1ccc(Nc2c3ccccc3nc3ccccc23)cc1.Cl | 26.95 |
| CC1=C(CC(=O)c2cccc([N+](=O)[O-])c2)C(=O)c2ccccc2C1=O | -15.31 |

| SMILES | Inhibition [%] |
| --- | --- |
| CCCCc1c(C)nc2c(OC)cccc2c1O | -24.29 |
| OC1CCCCC1C1(NC(=S)Nc2ccccc2)CCCCC1 (stereo unspecified) | 3.232 |
| OC1=C2C(=Nc3ccccc3SC2c2ccc(Br)cc2)c2ccccc21 (stereo unspecified) | 2.929 |
| COc1ccc(C)c2sc(N(Cc3cccnc3)C(=O)c3ccc(C#N)cc3)nc12 | -2.161 |
| Clc1ccc2c(N3CCCC3)ccnc2c1 | -28.37 |
| CCOC(=O)C1CCN(C(=O)CN2C(=O)c3ccccc3C2c2c[nH]c3ccccc23)CC1 (stereo unspecified) | 23.12 |
| CCOc1ccc(CCNC(=O)c2cccs2)cc1OCC | 10.2 |
| COc1ccc(C(=O)C2CC2c2ccc(Cl)cc2)cc1 (stereo unspecified) | -36.26 |
| Cc1cc(N2CCN(C3CCCC3)CC2)n2c(nc3ccccc32)c1C#N | -41.28 |
| CCCCCn1c(=N)n(CC(O)COc2cccc(C)c2)c2ccccc21.Cl (stereo unspecified) | -6.708 |
| O=c1c2c([nH]c3ccccc13)CCCC2 | 14.89 |
| CCCCOc1ccc(C(=O)Nc2cc(C)on2)cc1 | -8.82 |
| CCc1ccc(Nc2cc(C)nc3nc(C)nn23)cc1 | -3.889 |
| Br.CCN(CC)S(=O)(=O)c1ccc(-c2csc(Nc3ccc(C)c(C)c3)n2)cc1 | -28.35 |
| CCN1CCN(c2c(C(=O)c3ccccc3)cnc3cc(OC)c(OC)cc23)CC1 | -1.231 |
| Cc1c(C)n(CC(O)CNC2CCCCC2C)c2ccccc12 (stereo unspecified) | -20.79 |
| Cc1ccc(S(=O)(=O)c2c(COC(=O)c3cccc(C)c3)c(-c3ccccc3)nn2C)cc1 | -24.68 |
| CCCCN(CCCC)S(=O)(=O)c1ccc(NC(=O)c2ccco2)cc1 | -29.51 |
